This is an account of results in ChEMBL document CHEMBL3988442, “University of Dundee, Small-Polar-MMV Screening Library” (2021).

Assay [1] is described as follows: microbe, parasite or virus in culture. Particulars: Mycobacterium tuberculosis, 72 h, read-out: pIC50 (converted).
A short description of assay [2]: microbe, parasite or virus in culture. Particulars: Mycobacterium tuberculosis, 96 h, read-out: pIC50 (converted).

In the case of `Cc1cccc(-c2noc([C@@H]3Cc4nc[nH]c4CN3)n2)c1`, in assay [1], the IC50 is 1.94 µM.

For `O=C1N(c2ccccc2)C[C@H]2CN(C3CCC3)CCN12`, the IC50 in assay [1] is 7.22 µM. Take `CC(=O)N1CCC(N2CCOC[C@H]2c2nc(-c3ccc(Cl)s3)c[nH]2)CC1`: the IC50 in assay [2] was more than 50.1 µM. Consider `Cc1ccc(-c2noc([C@@H]3Cc4nc[nH]c4CN3)n2)cc1`, for which the IC50 in assay [1] is 1.94 µM; in assay [2], 2.31 µM. In the same order, the values of `CC1=C[C@@H](CN2CCCC2)[C@H](C(C)C)C[C@H]1Cc1nnc(C)o1` are more than 50.1 µM and more than 50.1 µM.

Turning to `Cc1cc(NCCN)nc(-c2ccccc2O)n1`, in assay [1], the IC50 was more than 50.1 µM. For the compound `CN1CCN(C(=O)c2cc3sccc3n2Cc2ccc(Cl)cc2)CC1`, the IC50 in assay [2] was more than 50.1 µM.

Regarding `CCc1c(C)nc(-n2nc(-c3cccs3)cc2N)[nH]c1=O`, the IC50 in assay [1] was 44 µM. Take `COc1ccc(S(=O)(=O)N2CCC(Cn3ccnc3)CC2)cc1`: the IC50 in assay [2] is more than 50.1 µM. In the case of `CC(=O)NCC(Cc1cccc(F)c1)n1cccc1` (stereo not drawn), the IC50 in assay [1] is more than 50.1 µM; in assay [2], 42.5 µM. On to `CCOCC(=O)NCC(Cc1cccc(F)c1)n1cccc1` (stereo not drawn), for which the values for the IC50 in assay [1] and in assay [2] were 10.4 µM and 11.7 µM, respectively. Consider `O=C(NCC(F)(F)F)C1CN(C(=O)c2cnccn2)C1`, for which the IC50 in assay [1] and in assay [2] was more than 50.1 µM throughout. Consider `COc1cc(C(=O)NCCc2ccccc2OC)on1`, for which the IC50 in assay [1] was more than 50.1 µM.

For `COC[C@@H]1CN(C)C(=O)[C@@H]2CCN(Cc3ccco3)CC[C@H]12`, the IC50 in assay [1] and in assay [2] was more than 50.1 µM each time. `Cc1noc(C[C@@H]2COC[C@H]3CN(C(=O)C4=CCCC4)C[C@@H]23)n1`: the IC50 in assay [1] was more than 50.1 µM. For `FC1(F)CCNCC12CCN(c1ncccn1)C2` (stereo not drawn), the IC50 in assay [1] and in assay [2] was more than 50.1 µM in each case. In the case of `CN(C)c1ncnc2c1CCN(c1cccc(F)c1)CC2`, the IC50 in assay [1] and in assay [2] was more than 50.1 µM each time.

`O=C(c1cc(-c2ccn(CC3CC3)n2)n2ccccc12)N1CCCO1`: the IC50 in assay [1] is 3.54 µM; in assay [2], 1.05 µM. In the same order, the values of `CC(C)Nc1nc(N2CCCC2)nc2c1CN(c1ncc(F)cn1)CC2` are 46.4 µM and 28.3 µM. For `CCOC(=O)CSc1ccc(-c2nc(CC)no2)cn1`, the values for the IC50 in assay [1] and in assay [2] were 29.9 µM and 27.2 µM, respectively. With `Cc1ccc(N2N=C(C(N)=O)S(=O)(=O)c3cccnc32)cc1`, the IC50 in assay [1] is 14.5 µM; in assay [2] it was 36 µM. `COc1cccc(N2Cc3nc(=O)n(C(C)C)n3C2=O)c1`: the IC50 in assay [1] and in assay [2] was more than 50.1 µM in each case. Take `CCc1c(C)n(CCC#N)c2nc3ccccc3n2c1=O`: the IC50 in assay [1] and in assay [2] was more than 50.1 µM in each case. Take `CC(C)CN1Cc2nc(N3CCCC3)ncc2C1=O`: in assay [2], the IC50 is more than 50.1 µM. Take `Cc1nn(C)c2c(N3CCN(C)CC3)nc(C3CC3)nc12`: in assay [1], the IC50 is 47.6 µM. `Cc1cc2c(cc1Cl)C=CC1(CCN(CC(=O)N3CCCC3)CC1)O2`: in assay [1], the IC50 is more than 50.1 µM. `CCCC1c2cccn2CCN1C(=O)Cn1cnc2sc(C)cc2c1=O` (stereo not drawn): the IC50 in assay [2] is more than 50.1 µM. As to `CCCn1cc(Cl)c(C(=O)N2C[C@@H](O)[C@H](Oc3ccccc3)C2)n1`, in assay [1], the IC50 is more than 50.1 µM.

On to `CO[C@H]1C[C@@H]2CN(C(=O)Cc3ccc(C)s3)C[C@@H]2C1`, for which the IC50 in assay [2] was more than 50.1 µM. On the same count and under the same terms, as for `CO[C@H]1C[C@@H]2CN(C(=O)c3ccc(C)s3)C[C@@H]2C1`, the figure is 22.3 µM. The same measure, in the same setting: as for `NCCn1nc(C2CCN(C(=O)Cc3ccccc3)C2)c2nccnc21` (stereo not drawn), the figure is more than 50.1 µM. Regarding `CN(CCCOc1ccccc1)C(=O)c1csc(-c2nnc[nH]2)n1`, the IC50 in assay [2] is more than 50.1 µM. Take `CCCc1nc(CN(CCO)Cc2cc(Br)ccc2F)no1`: the IC50 in assay [1] is 18.9 µM. In the case of `O=c1oc(-c2ccc(F)cc2)nn1CC1CCOC1` (stereo not drawn), in assay [1], the IC50 is 34.3 µM. Still for that read-out and setting: as for `O=C(CCC(F)(F)F)NCC1CCCS1` (stereo not drawn), the figure is 8.35 µM. Regarding `N#Cc1csc(CNCCOc2ccccc2)c1`, the IC50 in assay [2] is more than 50.1 µM. The same measure, in the same setting: for `COc1cccc(-c2cnc(CNC(C)(C)c3nc(C)cs3)o2)c1` the value was more than 50.1 µM; for `CC(C1CC1)N(C)Cc1nnc(-c2ccco2)o1` (stereo not drawn), more than 50.1 µM. As for `CC(C)CCC(=O)NCC(=O)N1CCCCCC1c1ccco1` (stereo not drawn), the IC50 in assay [2] is 6.55 µM.

For `CNS(=O)(=O)c1cccc(C(C)NCc2ccc(C)c(C)c2)c1` (stereo not drawn), the IC50 in assay [2] was more than 50.1 µM.

With `CCNC(=O)CCCC(=O)N1CCc2cc(Cl)cc(Cl)c2C1`, the IC50 in assay [1] is more than 50.1 µM.

For `CCOCc1nnc(NCc2ccsc2)o1`, in assay [2], the IC50 was 24.8 µM. On the same count and under the same terms, as for `Cc1cnn(-c2cccc(N3CCN(c4cc(C)nc(C)n4)CC3)n2)c1`, the figure is more than 50.1 µM. As for `COCCN(Cc1ccccc1)Cc1nc(-c2ccsc2)no1`, the IC50 in assay [1] is 20.5 µM. Still for that read-out and setting: for `Cc1nnc(CN(Cc2ccccc2Br)C2CC2)o1` the value was 20.1 µM; for `CCc1nnc(CN(C)CC2CCCCC2)o1`, more than 50.1 µM; for `Cc1ccc(NC(=O)c2ncc(C(N)=O)cc2Cl)cc1F`, more than 50.1 µM. As for `N#CCCCn1nnnc1Cc1ccc(Br)cc1`, the IC50 in assay [1] is more than 50.1 µM. As to `CCN(C(=O)CCCOC)C(c1ccc(Cl)cc1)c1ccccn1` (stereo not drawn), the IC50 in assay [2] is more than 50.1 µM.

As for `Cc1nc(CNC(=O)Nc2ccc3c(c2)CCCC(=O)N3)sc1C`, in assay [1], the IC50 is more than 50.1 µM.

For the compound `Cc1cccc(NCc2ncc(C(C)(C)C)o2)c1`, the IC50 in assay [2] is 12 µM. For `CC(Cn1cccn1)NS(=O)(=O)Cc1ccccc1` (stereo not drawn), in assay [1], the IC50 was more than 50.1 µM.

As to `CN(C)c1ccc(CNC(=O)c2ccc(Cl)cc2F)cc1`, the IC50 in assay [2] was more than 50.1 µM. Still for that read-out and setting: as for `CCc1nc2c(NCC3COc4c(cccc4OC)C3)ncnc2o1` (stereo not drawn), the figure is more than 50.1 µM.

Consider `Cc1cccnc1CN(C)C(C(=O)O)c1ccc(-c2ccn[nH]2)cc1` (stereo not drawn), for which the IC50 in assay [1] is more than 50.1 µM. Still for that read-out and setting: for `O=C1N(Cc2ccc(F)c(F)c2)CCCC12CCN(C1CCCC1)C2` (stereo not drawn) the value was more than 50.1 µM; for `Cc1nc(-c2cc(F)c3c(c2)CC(CN)O3)c[nH]1` (stereo not drawn), 2.55 µM.

With `Fc1ccccc1CN1CCCC2(CCN(c3ncccn3)C2)C1` (stereo not drawn), the IC50 in assay [1] is 30.4 µM. As for `CCSc1ncc(CN2CCN(c3ncc(C)c(N)n3)CC2)cn1`, the IC50 in assay [2] is 20.4 µM. `Cc1cc(N2Cc3cnn(CCO)c3C2)nc(-c2ccccc2O)n1`: the IC50 in assay [1] was more than 50.1 µM. On the same count and under the same terms, for `O=C1N(Cc2ccc(F)cc2)CCCC12CCN(C1CCSCC1)C2` (stereo not drawn) the value was more than 50.1 µM; for `Cc1nc(CN2CCC(NS(C)(=O)=O)CC2)co1`, more than 50.1 µM. As to `COc1coc(CN2CCCC(CCc3c(F)cccc3F)C2)cc1=O` (stereo not drawn), the IC50 in assay [2] was 9.45 µM.

On to `Cc1cccc2cc(CO)c(N3Cc4cnc(C(C)(C)C)nc4C3)nc12`, for which the IC50 in assay [1] is more than 50.1 µM. For `Cc1cc(F)ccc1CN1CCCC(O)(CN2CCCC2)C1` (stereo not drawn), the IC50 in assay [1] is more than 50.1 µM. On the same count and under the same terms, for `c1ccc(-c2nc3c(c(NCCc4c[nH]cn4)n2)CCNC3)cc1` the value was 10.9 µM; for `COc1cnc(C2(O)CCN(C(=O)c3cccnc3)CC2)c(OC)n1`, more than 50.1 µM. As to `O=C(c1nn(-c2ccccc2F)cc1O)N1CCC2(CC1)OCCO2`, the IC50 in assay [2] was more than 50.1 µM. For `Cc1ccccc1NC1CCN(C(=O)CCc2ccco2)CC1`, in assay [1], the IC50 was more than 50.1 µM.

As for `Cc1csc(N2CCCN(CCC(=O)NC(N)=O)CC2)n1`, the IC50 in assay [1] was 39.4 µM.

For the compound `COc1cccc(CN2CCCC2c2c(C)nn(C)c2C)c1` (stereo not drawn), in assay [1], the IC50 was 46.9 µM. In the case of `CN1CCCC1c1cc2cccnc2n1Cc1ccc(F)cc1` (stereo not drawn), the IC50 in assay [2] was more than 50.1 µM. In the case of `Cn1ccc(CN2CCOCC23CCNCC3)n1`, the IC50 in assay [2] is more than 50.1 µM.

With `c1csc(CN2CC(c3nc(-c4cnccn4)no3)C2)c1`, the IC50 in assay [1] and in assay [2] was more than 50.1 µM each time. Regarding `Clc1ccc(COCC2CCN(Cc3ccccn3)CC2)cc1`, the IC50 was 26.2 µM in assay [1] and 26.8 µM in assay [2]. `CCN1C[C@@H]2[C@@H](OC)CCN(C(=O)Cc3ccsc3)[C@@H]2C1`: the IC50 in assay [1] and in assay [2] was more than 50.1 µM throughout.

As for `N#Cc1ccc(N2CCC3(CC2)COCCN3Cc2cccnc2)cc1`, the IC50 in assay [1] and in assay [2] was more than 50.1 µM each time. On to `Cc1cccc(N2CCC3(CCCC(=O)N3)CC2)n1`, for which, in assay [2], the IC50 is more than 50.1 µM. Consider `Cc1ccc(N2CCN(C)c3ncccc3C2)nn1`, for which the IC50 in assay [1] and in assay [2] was more than 50.1 µM each time. For the compound `COCc1n[nH]c2c1CN(C(=O)c1ccncc1)C2`, the IC50 is 29.7 µM in assay [1] and more than 50.1 µM in assay [2].

For the compound `CC(=O)N1CCCC1c1nnn2cc(-c3ccncc3)ccc12` (stereo not drawn), the IC50 in assay [1] and in assay [2] was more than 50.1 µM in each case. Regarding `CCN1C(=O)[C@H]2CN(CC(C)C)C[C@H]2C12CCN(S(C)(=O)=O)CC2`, the IC50 in assay [1] and in assay [2] was more than 50.1 µM each time.

For the compound `O=C1[C@H]2CN(C3CCOC3)C[C@H]2CN1c1ccccc1` (stereo partly drawn), the IC50 in assay [1] and in assay [2] was more than 50.1 µM throughout. Turning to `OCCN1CCC2(CCc3cc(-c4ccoc4)ccc32)CC1`, the figures for the IC50 in assay [1] and in assay [2] were 23.5 µM and 24.1 µM, respectively.

Consider `CCOCc1cnc2n1CCN(C(=O)Cc1ccccn1)C2C` (stereo not drawn), for which the IC50 in assay [1] and in assay [2] was more than 50.1 µM each time. In the case of `Cc1ccc(CNCC2Cn3nnc(-c4cccc(F)c4)c3CO2)o1` (stereo not drawn), in assay [1], the IC50 is 8.85 µM. On to `Cn1cc(C(=O)N[C@@H]2CN(Cc3ccc(F)cc3)[C@@H]3CCCO[C@@H]32)cn1`, for which the IC50 in assay [1] and in assay [2] was more than 50.1 µM throughout. Turning to `COc1ccc(C[C@H]2CN(C(=O)CN(C)C)CC[C@H]2OC)cc1`, the IC50 in assay [2] is more than 50.1 µM. The same measure, in the same setting: as for `CN(C)CCN1C(=O)CCC12CCCN(C(=O)c1cccnc1)CC2` (stereo not drawn), the figure is more than 50.1 µM. With `CN(C)CC(=O)N1CCC2(CCc3cc(-c4cccnc4)ccc32)CC1`, the IC50 in assay [1] and in assay [2] was more than 50.1 µM in each case.

For `CN1[C@H](CN2CCCC2)C[C@@H]2CN(C(=O)c3cccn3C)CC[C@@H]21`, in assay [2], the IC50 was more than 50.1 µM. For `Cc1noc(C)c1-c1cccc(C2CN(CC(=O)N(C)C)CCO2)n1` (stereo not drawn), the IC50 in assay [2] is more than 50.1 µM. For `CC(N)Cc1ccccc1Sc1ccc(O)cc1` (stereo not drawn), the IC50 in assay [1] and in assay [2] was more than 50.1 µM throughout. For the compound `Cc1cc(CC(=O)NCCCc2ccncc2)on1`, in assay [1], the IC50 is more than 501 µM. `NC1CCS(=O)(=O)c2ccc(Br)cc21` (stereo not drawn): the IC50 in assay [2] was 89.1 µM.
